Results reported in patent US20220023401A1 (priority 2020, published 2022).
“And” between values parts separate entries of the source, which are not always exact repeats. Equal values may be shown once.

Assays:
[1] = system: antisera from immunized Cynomolgus macaques; assay type: binding; design: unit not given here
baboon anti-Aβ antibody = assay type: binding, baboons
[2] = system: sera from vaccinated baboons (anti-Aβ antibodies); assay type: binding
MvF4 Th (SEQ ID NO: 44) = system: MvF4 Th (SEQ ID NO: 44); design: species or system guinea pigs; details: guinea pig, in vivo
[3] = system: HBsAg2 Th (SEQ ID NO: 45); design: species or system guinea pigs; details: guinea pig, in vivo
Aβ1-42 = system: Aβ1-42; design: species or system guinea pigs; details: guinea pig, in vivo
[4] = system: Peripheral blood mononuclear cells (PBMC); assay type: cell-based, human
[5] = system: Peripheral blood mononuclear cells (PBMC); assay type: cell-based, human; remark: listed apart in the source
[6] = system: Peripheral Blood Mononuclear Cells (PBMCs); assay type: cell-based, Cynomolgus macaque

## AEFRHDSGYE (PEPTIDE (1)..(10) Abeta 2-11 or APP 770(A673-E682); listed as Homo sapiens) [SEQ ID NO: 17]
[1]
  Specificity analysis of antisera (ELISA reactivity with peptide): 0.058 and 0.059 and 0.054 and 0.060
Baboon anti-Aβ antibody
  Percent (%) Inhibition ELISA after peptide pre-absorption of sera: 0%
[2]
  ELISA Titer (Log10): 0.25 Log10 and 0.35 Log10 and 0.19 Log10

## Aβ1-14-ϵK-HBsAg2 Th [SEQ ID NO: 63]
MvF4 Th (SEQ ID NO: 44)
  MvF4 Th ELISA (SEQ ID NO: 44) Log10 Titer: 0.575 Log10 and 0.423 Log10 and 0.380 Log10 and 0.279 Log10 and 0.336 Log10 and 0.425 Log10
  MvF4 Th ELISA (SEQ ID NO: 44) Log10 Titer, Geomean: 0.393 Log10
  reactivity against the two T helper epitopes (SEQ ID NOs: 44 and 45): little or no reactivity
[3]
  HBsAg2 Th ELISA (SEQ ID NO: 45) Log10 Titer, Geomean: 0.375 Log10
Aβ1-42
  Aβ1-42 ELISA (SEQ ID NO: 1) Log10 Titer: 3.596 Log10 and 3.653 Log10 and 3.696 Log10 and 3.681 Log10 and 3.836 Log10 and 3.744 Log10
  Aβ1-42 ELISA (SEQ ID NO: 1) Log10 Titer, Geomean: 3.700 Log10

## Aβ1-14-ϵK-KKK-MvF4 Th [SEQ ID NO: 62]
MvF4 Th (SEQ ID NO: 44)
  MvF4 Th ELISA (SEQ ID NO: 44) Log10 Titer: 0.268 Log10 and 0.216 Log10 and 0.196 Log10 and 0.179 Log10 and 0.332 Log10 and 0.286 Log10
  MvF4 Th ELISA (SEQ ID NO: 44) Log10 Titer, Geomean: 0.240 Log10
  reactivity against the two T helper epitopes (SEQ ID NOs: 44 and 45): little or no reactivity
[3]
  HBsAg2 Th ELISA (SEQ ID NO: 45) Log10 Titer, Geomean: 0.397 Log10
Aβ1-42
  Aβ1-42 ELISA (SEQ ID NO: 1) Log10 Titer, Geomean: 4.208 Log10

## EEISEVKMDA (PEPTIDE (1)..(10) Abeta -8-2 or APP 770(E664-A673); listed as Homo sapiens) [SEQ ID NO: 9]
[1]
  Specificity analysis of antisera (ELISA reactivity with peptide): 0.082 and 0.092 and 0.081 and 0.076
[2]
  ELISA Titer (Log10): 0.24 Log10 and 0.30 Log10 and 0.21 Log10 and 0.22 Log10

## EFRHDSGYEV (PEPTIDE (1)..(10) Abeta 3-12 or APP 770(E674-V683); listed as Homo sapiens) [SEQ ID NO: 18]
[1]
  Specificity analysis of antisera (ELISA reactivity with peptide): 0.047 and 0.060 and 0.042 and 0.052
Baboon anti-Aβ antibody
  Percent (%) Inhibition ELISA after peptide pre-absorption of sera: 0% and 1% and 3%
[2]
  ELISA Titer (Log10): 0.24 Log10 and 0.30 Log10 and 0.18 Log10

## EISEVKMDAE (PEPTIDE (1)..(10) Abeta -7-3 or APP 770(E665-E674); listed as Homo sapiens) [SEQ ID NO: 10]
[1]
  Specificity analysis of antisera (ELISA reactivity with peptide): 0.060 and 0.056 and 0.064 and 0.053
[2]
  ELISA Titer (Log10): 0.23 Log10 and 0.25 Log10 and 0.16 Log10 and 0.14 Log10

## EVKMDAEFRH (PROPEP (1)..(10) Abeta -4-6 or APP 770(E668-H677); listed as Homo sapiens) [SEQ ID NO: 13]
[1]
  Specificity analysis of antisera (ELISA reactivity with peptide): 0.046 and 0.047 and 0.054
[2]
  ELISA Titer (Log10): 0.19 Log10 and 0.23 Log10 and 0.16 Log10 and 0.14 Log10

## FRHDSGYEVH (PEPTIDE (1)..(10) Abeta 4-13 or APP 770(F675-H684); listed as Homo sapiens) [SEQ ID NO: 19]
[1]
  Specificity analysis of antisera (ELISA reactivity with peptide): 0.085 and 0.076 and 0.066 and 0.096
[2]
  ELISA Titer (Log10): 0.20 Log10 and 0.40 Log10 and 0.22 Log10 and 0.30 Log10

## GYEVHHQKLV (PEPTIDE (1)..(10) Abeta 9-18 or APP 770(G680-V689); listed as Homo sapiens) [SEQ ID NO: 24]
[1]
  Specificity analysis of antisera (ELISA reactivity with peptide): 0.055 and 0.067 and 0.052 and 0.059
[2]
  ELISA Titer (Log10): 0.13 Log10 and 0.27 Log10 and 0.19 Log10 and 0.12 Log10

## HDSGYEVHHQ (PEPTIDE (1)..(10) Abeta 6-15 or APP 770(H677-Q686); listed as Homo sapiens) [SEQ ID NO: 21]
[1]
  Specificity analysis of antisera (ELISA reactivity with peptide): 0.266 and 0.494 and 0.419 and 0.332

## HHQKLVFFAE (PEPTIDE (1)..(10) Abeta 13-22 or APP 770(H684-E693); listed as Homo sapiens) [SEQ ID NO: 28]
[1]
  Specificity analysis of antisera (ELISA reactivity with peptide): 0.044 and 0.052 and 0.046 and 0.032
[2]
  ELISA Titer (Log10): 0.19 Log10 and 0.22 Log10 and 0.13 Log10 and 0.12 Log10

## HQKLVFFAED (PEPTIDE (1)..(10) Abeta 14-23 or APP 770(H685-D694); listed as Homo sapiens) [SEQ ID NO: 29]
[1]
  Specificity analysis of antisera (ELISA reactivity with peptide): 0.050 and 0.058 and 0.047
[2]
  ELISA Titer (Log10): 0.18 Log10 and 0.21 Log10 and 0.13 Log10

## ISEVKMDAEF (PEPTIDE (1)..(10) Abeta -6-4 or APP 770(I666-F675); listed as Homo sapiens) [SEQ ID NO: 11]
[1]
  Specificity analysis of antisera (ELISA reactivity with peptide): 0.055 and 0.058 and 0.063 and 0.062
[2]
  ELISA Titer (Log10): 0.20 Log10 and 0.15 Log10 and 0.13 Log10

## KMDAEFRHDS (PEPTIDE (1)..(10) Abeta -2-8 or APP 770(K670-S679); listed as Homo sapiens) [SEQ ID NO: 15]
[2]
  ELISA Titer (Log10): 0.26 Log10 and 0.36 Log10 and 0.41 Log10 and 0.51 Log10

## MDAEFRHDSG (PEPTIDE (1)..(10) Abeta -1-9 or APP 770(M671-G680); listed as Homo sapiens) [SEQ ID NO: 16]
[1]
  Specificity analysis of antisera (ELISA reactivity with peptide): 0.056 and 0.061 and 0.051
Baboon anti-Aβ antibody
  Percent (%) Inhibition ELISA after peptide pre-absorption of sera: 8%
[2]
  ELISA Titer (Log10): 0.26 Log10 and 0.32 Log10 and 0.16 Log10 and 0.17 Log10

## QKLVFFAEDV (PEPTIDE (1)..(10) Abeta 15-24 or APP 770(Q686-V695); listed as Homo sapiens) [SEQ ID NO: 30]
[1]
  Specificity analysis of antisera (ELISA reactivity with peptide): 0.043 and 0.055 and 0.062 and 0.059

## RHDSGYEVHH (PEPTIDE (1)..(10) Abeta 5-14 or APP 770(R676-H685); listed as Homo sapiens) [SEQ ID NO: 20]
[1]
  Specificity analysis of antisera (ELISA reactivity with peptide): 0.296 and 0.400 and 0.453 and 0.461
[2]
  ELISA Titer (Log10): 0.23 Log10 and 0.34 Log10 and 0.27 Log10 and 0.41 Log10

## SEVKMDAEFR (PEPTIDE (1)..(10) Abeta -5-5 or APP 770(S667-R676); listed as Homo sapiens) [SEQ ID NO: 12]
[1]
  Specificity analysis of antisera (ELISA reactivity with peptide): 0.056 and 0.053 and 0.054 and 0.050
[2]
  ELISA Titer (Log10): 0.21 Log10 and 0.24 Log10 and 0.16 Log10 and 0.13 Log10

## SGYEVHHQKL (PEPTIDE (1)..(10) Abeta 8-17 or APP 770(S679-L688); listed as Homo sapiens) [SEQ ID NO: 23]
[1]
  Specificity analysis of antisera (ELISA reactivity with peptide): 0.097 and 0.071 and 0.077 and 0.082

## TEEISEVKMD (PEPTIDE (1)..(10) Abeta -9-1 or APP 770(T663-D672); listed as Homo sapiens) [SEQ ID NO: 8]
[1]
  Specificity analysis of antisera (ELISA reactivity with peptide): 0.075 and 0.084 and 0.061 and 0.078
[2]
  ELISA Titer (Log10): 0.23 Log10 and 0.26 Log10 and 0.16 Log10 and 0.15 Log10

## VKMDAEFRHD (PEPTIDE (1)..(10) Abeta -3-7 or APP 770(V669-D678); listed as Homo sapiens) [SEQ ID NO: 14]
[1]
  Specificity analysis of antisera (ELISA reactivity with peptide): 0.068 and 0.053 and 0.061 and 0.054
[2]
  ELISA Titer (Log10): 0.27 Log10 and 0.46 Log10 and 0.48 Log10 and 0.55 Log10

## YEVHHQKLVF (PEPTIDE (1)..(10) Abeta 10-19 or APP 770(Y681-F690); listed as Homo sapiens) [SEQ ID NO: 25]
[1]
  Specificity analysis of antisera (ELISA reactivity with peptide): 0.092 and 0.069 and 0.058
[2]
  ELISA Titer (Log10): 0.16 Log10 and 0.43 Log10 and 0.15 Log10 and 0.22 Log10

## phytohaemagglutinin [PHA]
[4]
  IFN-γ mean cytokine concentration, Week 0: >320.00 pg/mL
  IFN-γ mean cytokine concentration, Week 16: >318.91 pg/mL
  IL-2 mean cytokine concentration, Week 0: 10.38^7 pg/mL
  IL-2 mean cytokine concentration, Week 16: 12.84^7 pg/mL
  IL-6 mean cytokine concentration, Week 0: >320.00 pg/mL
  IL-6 mean cytokine concentration, Week 16: >320.00 pg/mL
  IL-10 mean cytokine concentration, Week 0: 173.83 pg/mL
  IL-10 mean cytokine concentration, Week 16: >162.77 pg/mL
  TNF-α mean cytokine concentration, Week 0: >313.01 pg/mL
  TNF-α mean cytokine concentration, Week 16: >300.87 pg/mL
[5]
  Mean stimulation index, Difference: −0.98
  Mean stimulation index, Week 0: 28.73
  Mean stimulation index, Week 16: 27.75
[5]; 10 μg/mL
  proliferation response by lymphocytes when added to the culture medium: positive proliferation responses
[6]
  IL-2 cytokine concentration: 97.5 ± 6.6 pg/mL and 90.6 ± 12.4 pg/mL and 96.1 ± 13.3 pg/mL
  IL-6 cytokine concentration: 69.1 ± 12.0 pg/mL and 70.6 ± 15.7 pg/mL and 66.2 ± 7.3 pg/mL
  TNF-α cytokine concentration: 91.0 ± 29.1 pg/mL and 96.1 ± 22.2 pg/mL and 89.0 ± 13.7 pg/mL
